In ChEMBL document CHEMBL1201862, “PubChem BioAssay data set” (2004):
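Test compounds were applied to cells in 96-well plates for 48 hours at 5 doses. GI50: concentration for 50% inhibition of growth.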 Activity calls are given as the source filed them. No stated cut-off is given here; in the data, active = GI50 up to about 1.1 µM and inactive = higher.

Columns and labels:
Assay in all cases: NCI-60 cell line screen, 48 h
[1] = system: LOX IMVI
[2] = system: BT-549
[3] = system: MDA-N
[4] = system: M14
[5] = system: T47D
[6] = system: A498
[7] = system: UO-31
[8] = system: HCT-15
[9] = system: SK-OV-3
[10] = system: HL-60
[11] = system: UACC-257
[12] = system: HOP-62
[13] = system: HT-29
[14] = system: KM12
[15] = system: TK-10
[16] = system: Hs-578T
[17] = system: MDA-MB-231
[18] = system: NCI-H23
[19] = system: UACC-62
[20] = system: CCRF-CEM
[21] = system: ACHN
[22] = system: U-251
[23] = system: K562
[24] = system: MOLT-4
[25] = system: MCF7
[26] = system: OVCAR-3
[27] = system: EKVX
[28] = system: Malme-3M
[29] = system: DU-145
[30] = system: MDA-MB-435
[31] = system: SF-268
[32] = system: SK-MEL-28
[33] = system: HCC 2998
[34] = system: NCI-H460
[35] = system: RXF 393
[36] = system: SR
[37] = system: SNB-75
[38] = system: RPMI-8226
[39] = system: NCI-H226
[40] = system: NCI-H522
[41] = system: SF-539
[42] = system: HCT-116
[43] = system: SK-MEL-2
[44] = system: OVCAR-5
[45] = system: SNB-19
[46] = system: A549
[47] = system: HOP-92
[48] = system: IGROV-1
[49] = system: SK-MEL-5
[50] = system: SN12C
[51] = system: PC-3
[52] = system: SW-620
[53] = system: SF-295
[54] = system: OVCAR-8
[55] = system: 786-0

Compound: CC1CN=C(Nc2cccc(C(F)(F)F)c2)S1 (stereo not drawn)
- GI50 [1]: 43.5 µM (inactive)
- GI50 [2]: 80 µM (inactive)
- GI50 [3]: 40.6 µM (inactive)
- GI50 [4]: > 100 µM (inactive)
- GI50 [5]: 54 µM (inactive)
- GI50 [6]: 42 µM (inactive)
- GI50 [7]: 27.5 µM (inactive)
- GI50 [8]: 36.1 µM
- GI50 [9]: 94.4 µM (inactive)
- GI50 [10]: 20.7 µM (inactive)
- GI50 [11]: 52.5 µM (inactive)
- GI50 [12]: 95.3 µM (inactive)
- GI50 [13]: 78.7 µM (inactive)
- GI50 [14]: 81.5 µM (inactive)
- GI50 [15]: 84.5 µM (inactive)
- GI50 [16]: 66.2 µM (inactive)
- GI50 [17]: 28.1 µM (inactive)
- GI50 [18]: 36.1 µM (inactive)
- GI50 [19]: 97.3 µM (inactive)
- GI50 [20]: 31.9 µM (inactive)
- GI50 [21]: > 100 µM (inactive)
- GI50 [22]: 54.7 µM (inactive)
- GI50 [23]: 30.4 µM (inactive)
- GI50 [24]: 25.4 µM (inactive)
- GI50 [25]: 44.7 µM (inactive)
- GI50 [26]: 51.5 µM (inactive)
- GI50 [27]: 34.1 µM (inactive)
- GI50 [28]: > 100 µM (inactive)
- GI50 [29]: 70.8 µM (inactive)
- GI50 [30]: 53.1 µM (inactive)
- GI50 [31]: 44 µM (inactive)
- GI50 [32]: > 100 µM (inactive)
- GI50 [33]: > 100 µM (inactive)
- GI50 [34]: 52.8 µM (inactive)
- GI50 [35]: 42.9 µM (inactive)
- GI50 [36]: 21.7 µM (inactive)
- GI50 [37]: 88.1 µM (inactive)
- GI50 [38]: 23.4 µM (inactive)
- GI50 [39]: 79.3 µM (inactive)
- GI50 [40]: 42.4 µM (inactive)
- GI50 [41]: > 100 µM (inactive)
- GI50 [42]: 41.7 µM (inactive)
- GI50 [43]: 77.6 µM (inactive)
- GI50 [44]: > 100 µM (inactive)
- GI50 [45]: 95.5 µM (inactive)

Compound: CC(C)CC(C#CCCOC(=O)c1ccccc1)OC(=O)c1ccccc1 (stereo not drawn)
- GI50 [46]: > 10 µM (inactive)
- GI50 [1]: > 10 µM (inactive)
- GI50 [2]: > 10 µM (inactive)
- GI50 [3]: > 10 µM (inactive)
- GI50 [4]: > 10 µM (inactive)
- GI50 [5]: > 10 µM (inactive)
- GI50 [6]: > 10 µM (inactive)
- GI50 [7]: > 10 µM (inactive)
- GI50 [47]: > 10 µM (inactive)
- GI50 [8]: > 10 µM
- GI50 [9]: > 10 µM (inactive)
- GI50 [48]: > 10 µM (inactive)
- GI50 [10]: > 10 µM (inactive)
- GI50 [11]: > 10 µM (inactive)
- GI50 [12]: > 10 µM (inactive)
- GI50 [49]: > 10 µM (inactive)
- GI50 [13]: > 10 µM (inactive)
- GI50 [14]: > 10 µM (inactive)
- GI50 [15]: > 10 µM (inactive)
- GI50 [16]: > 10 µM (inactive)
- GI50 [50]: > 10 µM (inactive)
- GI50 [17]: > 10 µM (inactive)
- GI50 [18]: > 10 µM (inactive)
- GI50 [19]: > 10 µM (inactive)
- GI50 [51]: > 10 µM (inactive)
- GI50 [52]: > 10 µM (inactive)
- GI50 [20]: > 10 µM (inactive)
- GI50 [21]: > 10 µM (inactive)
- GI50 [22]: > 10 µM (inactive)
- GI50 [23]: > 10 µM (inactive)
- GI50 [24]: > 10 µM (inactive)
- GI50 [25]: > 10 µM (inactive)
- GI50 [26]: > 10 µM (inactive)
- GI50 [27]: > 10 µM (inactive)
- GI50 [53]: > 10 µM (inactive)
- GI50 [28]: > 10 µM (inactive)
- GI50 [29]: > 10 µM (inactive)
- GI50 [30]: > 10 µM (inactive)
- GI50 [31]: > 10 µM (inactive)
- GI50 [32]: > 10 µM (inactive)
- GI50 [33]: > 10 µM (inactive)
- GI50 [34]: > 10 µM (inactive)
- GI50 [35]: > 10 µM (inactive)
- GI50 [54]: > 10 µM (inactive)
- GI50 [36]: > 10 µM (inactive)
- GI50 [37]: 0.445 µM (active)
- GI50 [39]: > 10 µM (inactive)
- GI50 [41]: > 10 µM (inactive)
- GI50 [55]: > 10 µM (inactive)
- GI50 [42]: > 10 µM (inactive)
- GI50 [43]: > 10 µM (inactive)
- GI50 [44]: > 10 µM (inactive)
- GI50 [45]: > 10 µM (inactive)
